SMILES | melting point [°C]
C[C@H](NC(=O)c1c(CN2CCN(CCO)C(=O)C2)c(-c2cccs2)nc2ccccc12)C1CCCCC1 [Example 1, 3-[4-(2-Hydroxy-ethyl)-3-oxo-piperazin-1-ylmethyl]-2-thiophen-2-yl-quinoline-4-carboxylic acid ((S)-1-cyclohexyl-ethyl)-amide] | 212 to 215
C[C@H](NC(=O)c1c(CN2CCNC(=O)C2)c(-c2ccccc2)nc2cc(F)c(F)cc12)C1CCCCC1 [Example 2, 6,7-Difluoro-3-(3-oxo-piperazin-1-ylmethyl)-2-phenyl-quinoline-4-carboxylic acid ((S)-1-cyclohexyl-ethyl)-amide] | 185 to 190
C[C@H](NC(=O)c1c(CN2CCN(CCOCCO)C(=O)C2)c(-c2ccccc2)nc2ccc(F)cc12)C1CCCCC1 [Example 3, 6-Fluoro-3-{4-[2-(2-hydroxy-ethoxy)-ethyl]-3-oxo-piperazin-1-ylmethyl}-2-phenyl-quinoline-4-carboxylic acid ((S)-1-cyclohexyl-ethyl)-amide] | 110 to 112
C[C@H](NC(=O)c1c(CN2CCN(C[C@H](O)CO)C(=O)C2)c(-c2ccccc2)nc2ccccc12)C1CCCCC1 [Example 4, (S) 3-[4-(2,3-Dihydroxy-propyl)-3-oxo-piperazin-1-ylmethyl]-2-phenyl-quinoline-4-carboxylic acid ((S)-1-cyclohexyl-ethyl)-amide] | 125 to 127
C[C@H](NC(=O)c1c(CN2CCN(C[C@@H](O)CO)C(=O)C2)c(-c2ccccc2)nc2ccccc12)C1CCCCC1 [Example 5, (R) 3-[4-(2,3-Dihydroxy-propyl)-3-oxo-piperazin-1-ylmethyl]-2-phenyl-quinoline-4-carboxylic acid ((S)-1-cyclohexyl-ethyl)-amide] | 133 to 135
C[C@H](NC(=O)c1c(CN2CCN(CCCO)C(=O)C2)c(-c2ccccc2)nc2ccc(F)cc12)C1CCCCC1 [Example 6, 6-Fluoro-3-[4-(3-hydroxy-propyl)-3-oxo-piperazin-1-ylmethyl]-2-phenyl-quinoline-4-carboxylic acid ((S)-1-cyclohexyl-ethyl)-amide] | 110 to 130
C[C@H](NC(=O)c1c(CN2CCN(CCO)C(=O)C2)c(-c2ccccc2)nc2ccc(F)cc12)C1CCCCC1 [Example 7, 6-Fluoro-3-[4-(2-hydroxy-ethyl)-3-oxo-piperazin-1-ylmethyl]-2-phenyl-quinoline-4-carboxylic acid ((S)-1-cyclohexyl-ethyl)-amide] | 120 to 122
C[C@H](NC(=O)c1c(CN2CCN(CCOCCO)CC2)c(-c2ccccc2)nc2ccc(F)cc12)C1CCCCC1 [Example 8, 6-Fluoro-3-{4-[2-(2-hydroxy-ethoxy)-ethyl]-piperazin-1-ylmethyl}-2-phenyl-quinoline-4-carboxylic acid ((S)-1-cyclohexyl-ethyl)-amide] | 142 to 144
C[C@H](NC(=O)c1c(CN2CCN(CCCO)CC2)c(-c2ccccc2)nc2ccc(F)cc12)C1CCCCC1 [Example 9, 6-Fluoro-3-[4-(3-hydroxy-propyl)-piperazin-1-ylmethyl]-2-phenyl-quinoline-4-carboxylic acid ((S)-1-cyclohexyl-ethyl)-amide] | 182 to 184
C[C@H](NC(=O)c1c(CN2CCN(CCO)CC2)c(-c2ccccc2)nc2ccc(F)cc12)C1CCCCC1 [Example 10, 6-Fluoro-3-[4-(2-hydroxy-ethyl)-piperazin-1-ylmethyl]-2-phenyl-quinoline-4-carboxylic acid ((S)-1-cyclohexyl-ethyl)-amide] | 114 to 116

Continued, values first:

melting point [°C] | SMILES
182 to 188 | C[C@H](NC(=O)c1c(CN2CCN(CCOCCO)CC2)c(-c2cccs2)nc2ccccc12)C1CCCCC1 [Example 11, 3-{4-[2-(2-Hydroxy-ethoxy)-ethyl]-piperazin-1-ylmethyl}-2-thiophen-2-yl-quinoline-4-carboxylic acid ((S)-1-cyclohexyl-ethyl)-amide]
110 | C[C@H](NC(=O)c1c(CN2CCN(CCO)CC2)c(-c2cccs2)nc2ccccc12)C1CCCCC1 [Example 12, 3-[4-(2-Hydroxy-ethyl)-piperazin-1-ylmethyl]-2-thiophen-2-yl-quinoline-4-carboxylic acid ((S)-1-cyclohexyl-ethyl)-amide]
168 to 170 | C[C@H](NC(=O)c1c(CN2CCN(CCCO)CC2)c(-c2ccccc2)nc2ccccc12)C1CCCCC1 [Example 13, 3-[4-(3-Hydroxy-propyl)-piperazin-1-ylmethyl]-2-phenyl-quinoline-4-carboxylic acid ((S)-1-cyclohexyl-ethyl)-amide]
120 to 122 | C[C@H](NC(=O)c1c(CN2CCN(CCCO)C(=O)C2)c(-c2ccccc2)nc2ccccc12)C1CCCCC1 [Example 14, 3-[4-(3-Hydroxy-propyl)-3-oxo-piperazin-1-ylmethyl]-2-phenyl-quinoline-4-carboxylic acid ((S)-1-cyclohexyl-ethyl)-amide]
240 to 242 | C[C@H](NC(=O)c1c(CN2CCNCC2=O)c(-c2ccccc2)nc2ccc(F)cc12)C1CCCCC1 [Example 15, 6-Fluoro-3-(2-oxo-piperazin-1-ylmethyl)-2-phenyl-quinoline-4-carboxylic acid ((S)-1-cyclohexyl-ethyl)-amide]
125 to 128 | C[C@H](NC(=O)c1c(CN2CCN(CCOCCO)C(=O)C2)c(-c2ccccc2)nc2ccccc12)C1CCCCC1 [Example 16, 3-{4-[2-(2-Hydroxy-ethoxy)-ethyl]-3-oxo-piperazin-1-ylmethyl}-2-phenyl-quinoline-4-carboxylic acid ((S)-1-cyclohexyl-ethyl)-amide]
102 to 104 | C[C@H](NC(=O)c1c(CN2CCN(CCOCCO)C(=O)C2)c(-c2cccs2)nc2ccccc12)C1CCCCC1 [Example 17, 3-{4-[2-(2-Hydroxy-ethoxy)-ethyl]-3-oxo-piperazin-1-ylmethyl}-2-thiophen-2-yl-quinoline-4-carboxylic acid ((S)-1-cyclohexyl-ethyl)-amide]
117 to 119 | C[C@H](NC(=O)c1c(CN2CCN(CCCO)C(=O)C2)c(-c2cccs2)nc2ccccc12)C1CCCCC1 [Example 18, 3-[4-(3-Hydroxy-propyl)-3-oxo-piperazin-1-ylmethyl]-2-thiophen-2-yl-quinoline-4-carboxylic acid ((S)-1-cyclohexyl-ethyl)-amide]
124 to 126 | C[C@H](NC(=O)c1c(CN2CCN(C[C@H](O)CO)CC2)c(-c2ccccc2)nc2ccccc12)C1CCCCC1 [Example 19, 3-[4-((S)-2,3-Dihydroxy-propyl)-piperazin-1-ylmethyl]-2-phenyl-quinoline-4-carboxylic acid ((S)-1-cyclohexyl-ethyl)-amide]
126 to 128 | C[C@H](NC(=O)c1c(CN2CCN(C[C@@H](O)CO)CC2)c(-c2ccccc2)nc2ccccc12)C1CCCCC1 [Example 20, 3-[4-((R)-2,3-Dihydroxy-propyl)-piperazin-1-ylmethyl]-2-phenyl-quinoline-4-carboxylic acid ((S)-1-cyclohexyl-ethyl)-amide]
190 to 192 | CC(NC(=O)c1c(CN2CCN(C[C@H](O)CO)C(=O)C2)c(-c2ccccc2)nc2ccc(F)cc12)C1CCCCC1 (stereo partly drawn) [Example 21, 3-[4-((S)-2,3-Dihydroxy-propyl)-3-oxo-piperazin-1-ylmethyl]-6-fluoro-2-phenyl-quinoline-4-carboxylic acid (1-cyclohexyl-ethyl)-amide]
143 to 145 | C[C@H](NC(=O)c1c(CN2CCN(C[C@@H](O)CO)C(=O)C2)c(-c2ccccc2)nc2ccc(F)cc12)C1CCCCC1 [Example 22, 3-[4-((R)-2,3-Dihydroxy-propyl)-3-oxo-piperazin-1-ylmethyl]-6-fluoro-2-phenyl-quinoline-4-carboxylic acid ((S)-1-cyclohexyl-ethyl)-amide]
115 to 117 | C[C@H](NC(=O)c1c(CN2CCN(C[C@H](O)CO)C(=O)C2)c(-c2cccs2)nc2ccccc12)C1CCCCC1 [Example 23, 3-[4-((S)-2,3-Dihydroxy-propyl)-3-oxo-piperazin-1-ylmethyl]-2-thiophen-2-yl-quinoline-4-carboxylic acid ((S)-1-cyclohexyl-ethyl)-amide]
155 to 157 | C[C@H](NC(=O)c1c(CN2CCN(C(=O)NCCO)CC2)c(-c2ccccc2)nc2ccccc12)C1CCCCC1 [Example 25, 3-[4-(2-Hydroxy-ethylcarbamoyl)-piperazin-1-ylmethyl]-2-phenyl-quinoline-4-carboxylic acid ((S)-1-cyclohexyl-ethyl)-amide]
